Series [1] deals with brine shrimp (Artemia franciscana). The series is described as follows: whole plant or invertebrate. To be noted: 24 h, read-out: % Mortality at 1 ppm.
Series [2] concerns lesser grain borer (Rhizopertha dominica). To be noted: in vivo.
Series [3] concerns brine shrimp (Artemia franciscana). To be noted: in vivo.
For series [4], the system named is yellow fever mosquito (Aedes aegypti) larvae. The series is described as follows: whole plant or invertebrate. To be noted: 24 h, read-out: % mortality at 1 ppm.
In series [5] the test system is soybean cyst nematode (SCN) (Heterodera glycines) eggs. The following applies: in vivo.
The subject of series [6] is adult house fly (Musca domestica). To be noted: in vivo.
Series [7] has the same test system. Briefly: whole plant or invertebrate. To be noted: topical, 24 h, read-out: Percentage mortality at 24 h.

In brackets after ≈: the same amount, converted by molar mass. Several values for one entry are separate records, joined by “and”; a condition that tells them apart may be missing. Equal values may be shown once.

For `C=CC(O)CC#N` (centres unmarked) [CHB, 1-cyano-2-hydroxy-3-butene], the mortality – broadly, the share of the test organisms that died – at 1 ppm in series [1] turned out to be 13%. The “times less effective than dichlorvos” value in series [2] was “about 68 times”. Further, the “effectiveness as aquatic pesticide” value in series [3] was “very weak”. The mortality at 1 ppm in series [4] amounted to 17%. Besides, the “[…] HATCH” value in series [5] was −70% and −73%. Moreover, the LC50 (in general, the concentration that kills 50% of the test population) in series [6] came out at 6.2 µg/mL (≈ 63.8 µM). In series [7], the mortality at 10.7 µg/fly was 0% and the mortality at 107 µg/fly stood at 55%.

For the origin of these results see patent US6545043B1 (priority 1997, dated 2003).
